One data set addresses T1, tau oligomer (Tau-BiFC) (Homo sapiens, UniProt P10636, P618L).
T1 construct: VN173 (BiFC fragment); VC155 (BiFC fragment); expressed in transfected cells; host or cells: brain of transgenic TauP301L-BiFC mice (transgene-expressed)
Briefly: Tau-BiFC fluorescent imaging of brain tissues (tau oligomer formation). The format is in vivo, mouse. An excerpt: • 1) Experimental method for brain tissue sampling • (1) On day 1, after completing 63 times administration schedule, the mice of TauP301L-BiFC mouse model were anesthetized, followed by preparing heart laparotomy. • (2) Saline was introduced into the heart of each mouse in the TauP301L-BiFC mouse model, followed by removing vivo blood using a perfusion pump machine. • (3) The brain of the mouse was extracted and weighed. • (4) The brain to be used for tissue staining experiment was immersed in 4% FPA solution and fixed for 24 hours. • (5) On day 2, after completing fixation, the brain tissues were immersed in 20% sucrose solution to remove water for 24 hours. • (6) On day 3, the brain tissues were immersed in 30% sucrose solution to remove water for 48 hours. • (7) On day 5, the brain tissues free of water were taken and extra moisture was removed. Then, the brain tissues and a frozen tissue embedding agent (OCT compound) were placed in a prepared mold, followed by freezing the brain tissues as fast as possible while protecting the tissues. The frozen brain tissue-containing mold was stored in a defreezer at -80°C. Thereafter, using a cryostat for frozen fragment, the tissues were cut into a unit thickness of 30 µm and stored in 0.05% sodium azide solution.
• (1) On day 1, a brain tissue sample having a thickness of 30 µm under cryosection was selected for each brain region, immersed in PBS solution, and then washed three times. • (2) A solution of 0.05% Sudan Black B in 70% EtOH was stirred overnight (O/N), and then, particles were filtered through 0.22 µm filter. • (3) The selected brain tissue sample was immersed in distilled water (D.W.), and washed three times for 5 minutes. • (4) The brain tissues were immersed in a prepared 0.05% Sudan Black B solution, followed by staining for 10 minutes. • (5) The brain tissues stained in Sudan black B were immersed in 0.1% PBS-T solution, and washed at an interval of 30 seconds to control a degree of staining. • (6) The tissues were washed in D.W. three times for 5 minutes. • (7) In Hoechst solution at a concentration of 0.2 µg/mL in distilled water, the brain tissues were immersed to conduct nuclei staining for 20 minutes. • (8) The tissues were washed in D.W. three times for 5 minutes. • (9) Tau-BiFC imaging was performed using a slide scanner.
• (1) In order to obtain fluorescent images of the stained brain tissues, a brain tissue slide was scanned using Zeiss Axio Scan (Zeiss, Oberkochen, Germany). • BiFC fluorescence: λex=460-490 nm, λem=500-550 nm • AT8 fluorescence: λex=620-640 nm, λem=650-700 nm • Hoechst fluorescence: λex=330-375 nm, λem=430-470 nm • (3) For brain tissues per site obtained through imaging, fluorescent value was calculated through Image J software (NIH).

In data set [1] the test system is TauP301L-BiFC mice. Briefly: Rota-rod test (motor ability) in 4R TauP301L-BiFC mouse model. The format is in vivo. On the procedure:
• (1) After carrying out adaptation training for 3 days, a behavior experiment was performed on day 4. • (2) 1 hour before the experiment, a time for adaptation of experimental mice in a space where the behavior experiment is conducted, should be ensured. • (3) During the period for adaptation training, each mouse is forced to walk on a treadmill for 360 seconds at a speed of 5 rpm, 15 rpm, 20/25 rpm. Here, an experimental mouse losing a balance and fallen to the floor was forced to walk again. • (4) After the adaptation training, the behavior experiment was conducted by gradually increasing the speed from 5 rpm to 35 rpm for 480 seconds. When the treadmill worked, a time (seconds) taken until the experimental mouse lost the balance and fallen to the floor was measured.
Results of evaluating motor ability improvement efficacy through a Rota-rod test in a 4R TauP301L-BiFC mouse model were shown in Table 4 below and FIG. 2. Using a TauP301L-BiFC mouse model including 7- to 12-month-old mice administered with the drug for 5 months, the experiment was conducted. The results were analyzed through bidirectional ANOVA using Tukey's multiple-comparisons (*p<0.05; **p<0.01; n.s.: Insignificant for vehicle).

The next data set concerns the target tau aggregation (Homo sapiens, UniProt P10636). The settings on record: reported in Kim et al., Exp. Mol. Med. 55, 612-627 (2023); read-out: EC50 (tau aggregation inhibitory section); cited from earlier work.
For data set [2] the following is noted: reported in Kim et al., Exp. Mol. Med. 55, 612-627 (2023); read-out: GI50 (cytotoxicity side effects); cited from earlier work.
The subject of data set [3] is TauP301L-BiFC mice. The experiment in a line: Novel object recognition test (cognitive ability) in 4R TauP301L-BiFC mouse model. Conditions: LMTM 15 mg/kg; mice administered 62 times; FIG. 3. The format is in vivo. On the procedure:
• (1) On day 1, adaptation training to a new open space was conducted. After an adaptation time for two similar objects added to the corresponding open space on day 2, an experiment to evaluate a cognitive ability to the newly replaced object on day 3 was conducted. • (2) 1 hour before the experiment, a time for adaptation of experimental mice in a space wherein the behavior experiment is conducted, should be ensured. • (3) On day 1, after exposing the experimental mouse to an open space in a size of 40 x 40 cm, the mouse was subjected to behavior assessment for 10 minutes. • (4) On day 2, two similar objects were placed in the same open space, followed by enabling the mouse to learn the objects for 10 minutes. • (5) On day 3, one among the two objects learned in the same open space was replaced with a new object. At this time, a cognitive ability to the replaced object was evaluated.
Results of evaluating the cognitive ability improvement efficacy through a novel object recognition test in the 4R TauP301L-BiFC mouse model were shown in FIG. 3. The experiment was conducted using the TauP301L-BiFC mouse model including 7- to 12-month-old mice administered with the drug for 5 months. […] The obtained results were analyzed through bidirectional ANOVA using Sidak's multiple comparisons test (*p<0.05; ***p<0.0001).

The mark [4] stands for this setting: LMTM 15 mg/kg oral vs. vehicle, decrease (in parentheses).
The mark [5] stands for this setting: LMTM 15 mg/kg oral vs. vehicle, decrease (in parentheses), *p<0.05.

Results on one compound are retold here after patent EP4595972A1, “PEPTIDE FOR TREATING OR PREVENTING 4R TAUOPATHY” (GemVax & KAEL Co., Ltd., priority 2022, dated 2024).

A word on the EC50: it is the concentration giving half of the maximal effect. What is called GI50 is the concentration that inhibits growth by half.

T1 sequence (P10636 1-441 isoform P10636-8 P301L): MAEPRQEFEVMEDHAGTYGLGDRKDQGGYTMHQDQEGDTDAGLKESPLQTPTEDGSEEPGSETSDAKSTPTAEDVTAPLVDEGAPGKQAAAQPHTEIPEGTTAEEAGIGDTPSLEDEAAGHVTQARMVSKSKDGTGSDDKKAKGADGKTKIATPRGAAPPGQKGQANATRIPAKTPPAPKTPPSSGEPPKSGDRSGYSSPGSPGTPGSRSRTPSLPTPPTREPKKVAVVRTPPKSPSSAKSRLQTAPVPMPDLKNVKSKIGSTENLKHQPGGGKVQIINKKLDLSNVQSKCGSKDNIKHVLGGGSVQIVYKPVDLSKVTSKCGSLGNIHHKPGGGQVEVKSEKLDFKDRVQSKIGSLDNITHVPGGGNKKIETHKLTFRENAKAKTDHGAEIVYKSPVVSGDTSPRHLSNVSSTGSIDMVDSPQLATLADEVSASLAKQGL
T1 sequence (P10636 1-441 isoform P10636-8 P301L): as above
tau aggregation, sequence (P10636 whole entry): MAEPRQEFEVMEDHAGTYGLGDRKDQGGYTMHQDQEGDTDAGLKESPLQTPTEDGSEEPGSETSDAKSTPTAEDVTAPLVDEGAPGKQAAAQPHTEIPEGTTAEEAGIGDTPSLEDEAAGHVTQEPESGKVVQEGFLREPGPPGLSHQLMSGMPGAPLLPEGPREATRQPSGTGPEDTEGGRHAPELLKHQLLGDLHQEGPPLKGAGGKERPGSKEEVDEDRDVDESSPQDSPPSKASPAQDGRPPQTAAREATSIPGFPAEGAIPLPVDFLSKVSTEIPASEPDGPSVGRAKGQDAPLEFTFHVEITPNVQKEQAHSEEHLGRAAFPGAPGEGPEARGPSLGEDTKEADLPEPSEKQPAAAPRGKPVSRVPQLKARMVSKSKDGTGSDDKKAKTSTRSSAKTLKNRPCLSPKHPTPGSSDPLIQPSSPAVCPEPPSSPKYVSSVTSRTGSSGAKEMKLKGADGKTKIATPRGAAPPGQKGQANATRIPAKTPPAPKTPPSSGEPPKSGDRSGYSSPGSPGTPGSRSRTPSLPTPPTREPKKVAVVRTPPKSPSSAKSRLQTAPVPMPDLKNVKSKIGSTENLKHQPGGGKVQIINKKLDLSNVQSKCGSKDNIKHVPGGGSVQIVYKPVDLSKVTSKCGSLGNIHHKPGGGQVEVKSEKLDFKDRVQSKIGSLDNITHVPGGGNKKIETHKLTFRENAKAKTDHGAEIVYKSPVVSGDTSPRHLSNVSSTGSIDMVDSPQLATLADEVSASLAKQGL

Take `CN(C)c1ccc2c(c1)Sc1cc(N(C)C)ccc1N2.CS(=O)(=O)O.CS(=O)(=O)O` [LMTM]: on tau oligomer (Tau-BiFC) (setting [4]), the “TauBiFC fluorescent level, Somatosensory cortex” value is recorded as “(15 %)” and the “TauBiFC fluorescent level, Substantia nigra” value is listed as “(26 %)”. In addition, on tau oligomer (Tau-BiFC) (setting [5]), the “TauBiFC fluorescent level, Hippocampus” value was “(21 %)*” and the “TauBiFC fluorescent level, Motor cortex” value was “(27 %)*”. Also, at tau oligomer (Tau-BiFC) (LMTM 15 mpk), the “Tau-BiFC fluorescent level as compared to the vehicle group, in words” value was “significantly reduced in the motor cortex, hippocampus and substantia nigra regions”. Further, the “Duration (Rota-rod test on 11.9 months)” value with TauP301L-BiFC mice [1] (LMTM 15 mg/kg oral vs. vehicle, improvement) turned out to be 57%. In addition, in the data set with TauP301L-BiFC mice [1] (LMTM 15 mg/kg vs. vehicle, mice administered 59 times), the “exercise performance (Rota-rod treadmill), in words” value is on record as “exercise performance tended to improve, however, did not show a significant difference”. The concentration giving a half-maximal response (EC50) on tau aggregation is 2200 ± 200 nM. The GI50 in data set [2] is 6.4 ± 0.3 µM. Besides, in the data set on TauP301L-BiFC mice [3], the “cognitive ability for the new object (novel object recognition test), in words” value is given as “significantly improved”.
